Laboratory results published in patent US11566229B2, “Expansion and maintenance of adult primary human hepatocytes in culture” (Wisconsin Alumni Research Foundation, priority 2018, dated 2023).

Assays:
[1] = system: mouse adult proliferating hepatocytes; conditions: U0126 treated mouse adult proliferating hepatocytes
From the text: Total RNA was qualified with Life Technologies Qubit fluorometer (Q32857) and Agilent Bioanalyzer (G2940CA). Total RNA was used to prepare indexed cDNA libraries with the Ligation Mediated Sequencing (LM-Seq) protocol (Hou, Z et al. 2015). Final indexed cDNA libraries were pooled with forty-four uniquely indexed LM-Seq cDNA libraries per lane and sequenced on an Illumina HiSeq 3000.
We derived SHPCs from adult mouse liver and treated them with the MAPK inhibitor U0126.

[2] = system: ESC-hepatocyte derived SHPCs; conditions: SHPC medium, co-cultured with MEFs and U0126; QPCR, FIG. 6
From the text: We treated the ESC-hepatocyte derived SHPCs in SHPC medium and co-cultured with MEFs and U0126. We FAC sorted the albumin reporter expressing hepatocytes and performed QPCR.

N#CC(=C(/N)Sc1ccccc1N)/C(C#N)=C(\N)Sc1ccccc1N [U0126]
CYP1A2 gene expression (RNA-Seq) ([1]; vehicle 1): 78
RARA gene expression (RNA-Seq) ([1]; vehicle 1): 5
AHR gene expression (RNA-Seq) ([1]; vehicle 4): 11
UGT1A1 gene expression (RNA-Seq) ([1]; vehicle 6): 54
CYP3A16 (human fetal CYP3A4) gene expression (RNA-Seq) ([1]; vehicle 15): 2
RXRA gene expression (RNA-Seq) ([1]; vehicle 28): 40
UGT1A6A gene expression (RNA-Seq) ([1]; vehicle 28): 189
CYP1A1 gene expression (RNA-Seq) ([1]; vehicle 36): 1447
APOH gene expression (RNA-Seq) ([1]; vehicle 128): 245
HNF4A gene expression (RNA-Seq) ([1]; vehicle 254): 340
APOB gene expression (RNA-Seq) ([1]; vehicle 332): 567
CYP3A11 (human adult CYP3A4) gene expression (RNA-Seq) ([1]; vehicle 496): 563
Albumin gene expression (RNA-Seq) ([1]; vehicle 6523): 11379
increase in CYP3A expression [2]: 3 fold
increase in albumin expression [2]: 2 fold
